Biological target: T1, mitochondrial benzodiazepine receptor (MBR) (Rattus norvegicus, UniProt P16257)
T1 construct: from tissue; host or cells: kidney of male Wistar rats (crude membrane preparation)
Experiment: Binding assay of mitochondrial benzodiazepine receptor (MBR), [3H]4'-chlorodiazepam (Ro5-4864), rat kidney membrane-preparation
Settings: rat kidney membranes, [3H]4'-chlorodiazepam 0.5 nM, 0° C. for 150 minutes
Description: The binding assay of central-type benzodiazepine receptor (CBR) and the preparation of receptor membrane-preparation were carried out according to the partially modified method of Braestrup, C. et al. [see; Br. J. Psychiatry, 133, 249-260 (1978)] with a minor modification; the binding assay of mitochondrial benzodiazepine receptor (MBR) and the preparation of receptor membrane-preparation were carried out according to the method of Schoemaker, H [see; J. Pharmacol. Exp. Ther., 225, 61-69 (1983)] with a minor modification.
CBR and MBR membrane-preparations were prepared from forebrain (CBR) and kidney (MBR) of male Wistar strain rats according to the following procedure, respectively.
To the forebrain of rat, 20 volumes of ice-cold 0.32 M sucrose solution to wet-weight of the tissue (1:20, wet-weight/vol) was added and homogenized, and then the homogenate was centrifuged at 900×g for 10 minutes. The supernatant was centrifuged at 11,500×g for 20 minutes, a buffer I for the binding assay (50 mM Tris-hydrochloric acid buffer, pH 7.5) was added to the resultant precipitate, and the mixture was homogenized, and then it was centrifuged at 30,000×g for 10 minutes. The resulting precipitate was washed 3 times according to the same operation, suspended in the buffer I (1 g of wet-weight of tissue/10 ml) and used as a CBR membrane-preparation for the binding assay. The CBR membrane-preparation was stored at −80° C. until use, and on the day of the assay, it was thawed and suspended in the buffer for use. On the other hand, kidney of rat was homogenized in 20 volumes of ice-cold buffer II for the binding assay to wet-weight of the tissue (1:20, wet-weight/vol) (50 mM sodium phosphate-potassium phosphate buffer solution containing 100 mM sodium chloride, pH 7.4), and then filtrated through 4 layers of gauze, and the filtrate was centrifuged at 40,000×g for 20 minutes. The resulting precipitate was suspended in the buffer II (1 g of wet-weight of tissue/50 ml) and used as a MBR membrane-preparation for the binding assay.
As a labeled ligand and a non-labeled ligand, [^3H]flunitrazepam (final concentration: 1 nM) and diazepam (final concentration: 20 μM) were used respectively, for the CBR binding assay, and [^3H]4′-chlorodiazepam (Ro5-4864, chemical name: 7-chloro-1,3-dihydro-1-methyl-5-(4-chloro-phenyl)-2H-1,4-[…]) (final concentration: 0.5 nM) and diazepam (final concentration: 50 μM) were used respectively, for the MBR binding assay. The binding assay of CBR was carried out by incubating at 0° C. for 30 minutes, while that of MBR was at 0° C. for 150 minutes.
The receptor binding assay was carried out in the following procedure. The test compound which the concentration was known, a tritium labeled ligand, a receptor membrane-preparation and the buffer I or II for the binding assay were added to a 96-well microplate in the total volume was 0.2 ml, and when the receptor membrane-preparation was added, the reaction started. After the incubation, the labeled ligand binding to the receptor was filtrated through a filter plate (UNI FILTER-96GF/B, PerkinElmer, the U.S.) using a cell harvester (PerkinElmer, the U.S.) to stop the reaction. The filter was immediately washed 6 times with 0.3 ml of the ice-cold buffer [50 mM Tris-hydrochloric acid buffer (pH 7.7)]. After 30 μl of liquid scintillation cocktail (MICROSCINTI 20, PerkinElmer, the U.S.) was added to each well on the dried filter plate, the radioactivity was measured with a TopCount. The specific binding amount was obtained by subtracting the non-specific binding amount which was simultaneously measured in the presence of non-labeled ligand from the total binding amount. The concentration that the test compound could decrease the specific binding amount of the labeled ligand to 50% of the amount (IC50 value) was analyzed using nonlinear least-squares method.

With `C[C@H]1CCCN(C(=O)[C@@H]2Cc3ccccc3N2c2ccc(=S)n(C)n2)C1` [Example 139, (S)-2-[[(S)-3-methylpiperidin-1-yl]carbonyl]-1-(1-methyl-6-thioxo-1,6-dihydropyridazin-3-yl)indoline] as the compound, how does the IC50 read?
Its IC50 is 7.15 nM.

With `CC1CCCCN(C(=O)[C@@H]2Cc3ccccc3N2c2ccc(=O)n(C)n2)C1` (stereo partly drawn) [Example 150, (S)-1-(1-methyl-6-oxo-1,6-dihydropyridazin-3-yl)-2-[(3-methylperhydroazepin-1-yl)carbonyl]indoline] as the compound, how does the IC50 read?
The IC50 was 5.36 nM.

With `C[C@@H]1C[C@H](C)CN(C(=O)[C@@H]2Cc3ccccc3N2c2cccnc2)C1` [Example 33] as the compound, how does the IC50 read?
Its IC50 is 1.99 nM.

Which IC50 does the source give for `CC1CCCCN1C(=O)[C@@H]1Cc2ccccc2N1c1ccc(=O)n(C)n1` (stereo partly drawn) [Example 145, (S)-1-(1-methyl-6-oxo-1,6-dihydropyridazin-3-yl)-2-[(2-methylpiperidin-1-yl)carbonyl]indoline] here?
Its IC50 is 31 nM.

Which IC50 does the source give for `C[C@H]1CCCN(C(=O)C2Cc3c(F)cccc3N2c2ccc(=O)n(C)n2)C1` (single isomer, unassigned) [Example 155a] here?
The IC50 was 4.36 nM.

For `Cn1nc(N2c3cccc(F)c3CC2C(=O)N2CCCCCC2)ccc1=O` (stereo not drawn) [Example 156, 4-fluoro-1-(1-methyl-6-oxo-1,6-dihydropyridazin-3-yl)-2-[(1-perhydroazepinyl)carbonyl]indoline], which IC50 is on record?
Its IC50 is 2.76 nM.

For `CC1c2ccccc2N(c2ccc(Cl)nn2)C1C(=O)N1CCC[C@H](C)C1` (stereo partly drawn) [Example 140, 1-(6-chloropyridazin-3-yl)-3-methyl-2-[[(S)-3-methylpiperidin-1-yl]carbonyl]indoline], which IC50 is on record?
Its IC50 is 3.84 nM.

For `CC1CCN(C(=O)[C@@H]2Cc3ccccc3N2c2ccc(=O)n(C)n2)C1` (stereo partly drawn) [Example 148, (S)-1-(1-methyl-6-oxo-1,6-dihydropyridazin-3-yl)-2-[(3-methylpyrrolidin-1-yl)carbonyl]indoline], which IC50 is on record?
Its IC50 is 44.7 nM.

For `C[C@H]1CCCN(C(=O)[C@@H]2Cc3ccccc3N2c2ccc(=O)n(CC(=O)c3ccccc3)n2)C1` [Example 124], which IC50 is on record?
Its IC50 is 2.39 nM.

Which IC50 does the source give for `Cn1nc(N2c3ccccc3C[C@H]2C(=O)N2CCCCCC2)ccc1=O` [Example 118, (S)-1-(1-methyl-6-oxo-1,6-dihydropyridazin-3-yl)-2-[(1-perhydroazepinyl)carbonyl]indoline] here?
Its IC50 is 4.22 nM.

With `CCc1ccc2c(c1)C[C@@H](C(=O)N1CCC[C@H](C)C1)N2c1cccnn1` [Example 105, (S)-5-ethyl-2-[(S)-3-methylpiperidin-1-yl]-carbonyl-1-(3-pyridazinyl)indoline] as the compound, how does the IC50 read?
The IC50 was 80.7 nM.

Which IC50 does the source give for `CCC1CCN(C(=O)[C@@H]2Cc3ccccc3N2c2ccc(=O)n(C)n2)C1` (stereo partly drawn) [Example 149, (S)-2-[(3-ethylpyrrolidin-1-yl)carbonyl]-1-(1-methyl-6-oxo-1,6-dihydropyridazin-3-yl)indoline] here?
Its IC50 is 5.35 nM.

With `C[C@H]1CCCN(C(=O)C2Cc3c(F)cccc3N2c2ccc(=O)n(C)n2)C1` (single isomer, unassigned) [Example 155b] as the compound, how does the IC50 read?
The IC50 was 8.69 nM.

For `C[C@H]1CCCN(C(=O)[C@@H]2Cc3ccccc3N2c2ccc(=O)[nH]n2)C1` [Example 143, (S)-2-[[(S)-3-methylpiperidin-1-yl]carbonyl]-1-(6-oxo-1,6-dihydropyridazin-3-yl)indoline], which IC50 is on record?
The IC50 was 8.69 nM.

With `Cn1nc(N2c3ccccc3C[C@H]2C(=O)N2CCCC(C)(C)C2)ccc1=O` [Example 152, (S)-2-[(3,3-dimethylpiperidin-1-yl)carbonyl]-1-(1-methyl-6-oxo-1,6-dihydropyridazin-3-yl)indoline] as the compound, how does the IC50 read?
The IC50 was 7.29 nM.

Which IC50 does the source give for `CCCC1CCCN(C(=O)[C@@H]2Cc3ccccc3N2c2ccc(=O)n(C)n2)C1` (stereo partly drawn) [Example 147, (S)-1-(1-methyl-6-oxo-1,6-dihydropyridazin-3-yl)-2-[(3-propylpiperidin-1-yl)carbonyl]indoline] here?
Its IC50 is 3.8 nM.

With `CCC1CCCCN(C(=O)[C@@H]2Cc3ccccc3N2c2ccc(=O)n(C)n2)C1` (stereo partly drawn) [Example 151, (S)-2-[(3-ethylperhydroazepin-1-yl)carbonyl]-1-(1-methyl-6-oxo-1,6-dihydropyridazin-3-yl)indoline] as the compound, how does the IC50 read?
The IC50 was 3.59 nM.

For `C[C@H]1CCCN(C(=O)[C@@H]2Cc3ccccc3N2c2nccs2)C1` [Example 153, (S)-2-[(S)-3-methylpiperidin-1-yl]carbonyl-1-(1,3-thiazol-2-yl)indoline], which IC50 is on record?
Its IC50 is 1.13 nM.

With `CCC(C)n1nc(N2c3ccccc3CC2C(=O)N2CCCC(C)C2)ccc1=O` (stereo not drawn) [Example 76] as the compound, how does the IC50 read?
The IC50 was 3.04 nM.

For `Cn1nc(N2c3ccccc3CC2C(=O)N2CCCC(C(F)(F)F)C2)ccc1=O` (stereo not drawn) [Example 108], which IC50 is on record?
Its IC50 is 17.7 nM.

With `C[C@H]1CCCN(C(=O)[C@@H]2Cc3ccccc3N2c2ccc(=O)n(C3CCCC3)n2)C1` [Example 126] as the compound, how does the IC50 read?
Its IC50 is 2.69 nM.

For `CC1c2ccccc2N(c2ccc(=O)n(C)n2)C1C(=O)N1CCC[C@H](C)C1` (stereo partly drawn) [Example 141, 3-methyl-1-(1-methyl-6-oxo-1,6-dihydropyridazin-3-yl)-2-[[(S)-3-methylpiperidin-1-yl]carbonyl]indoline], which IC50 is on record?
The IC50 was 12.3 nM.

Which IC50 does the source give for `C[C@@H]1C[C@H](C)CN(C(=O)[C@@H]2Cc3ccccc3N2c2ncccc2N)C1` [Example 55, (S)-1-(3-aminopyridin-2-yl)-2-[(cis-3,5-dimethylpiperidin-1-yl)carbonyl]indoline] here?
Its IC50 is 55.1 nM.

Which IC50 does the source give for `C[C@H]1CCCN(C(=O)[C@@H]2Cc3ccccc3N2c2ccc3nncn3n2)C1` [Example 154, (S)-2-[[(S)-3-methylpiperidin-1-yl]carbonyl]-1-(1,2,4-triazolo[4,3-b]pyridazin-6-yl)indoline] here?
Its IC50 is 5 nM.

For `Cn1nc(N2c3cc(F)ccc3CC2C(=O)N2CCCCCC2)ccc1=O` (stereo not drawn) [Example 158, 6-fluoro-1-(1-methyl-6-oxo-1,6-dihydropyridazin-3-yl)-2-[(1-perhydroazepinyl)carbonyl]indoline], which IC50 is on record?
Its IC50 is 28.5 nM.

Which IC50 does the source give for `CCC1CCCN(C(=O)[C@@H]2Cc3ccccc3N2c2ccc(=O)n(C)n2)C1` (stereo partly drawn) [Example 146, (S)-2-[(3-ethylpiperidin-1-yl)carbonyl]-1-(1-methyl-6-oxo-1,6-dihydropyridazin-3-yl)indoline] here?
The IC50 was 4.91 nM.

For `Cn1nc(N2c3ccccc3C[C@H]2C(=O)N2CCCCCCC2)ccc1=O` [Example 119, (S)-1-(1-methyl-6-oxo-1,6-dihydropyridazin-3-yl)-2-[(1-perhydroazocinyl)carbonyl]indoline], which IC50 is on record?
Its IC50 is 3.98 nM.

With `C[C@H]1CCCN(C(=O)C2Cc3cc(O)ccc3N2c2ccc(=O)n(C)n2)C1` (stereo partly drawn) [Example 136, 5-hydroxy-1-(1-methyl-6-oxo-1,6-dihydropyridazin-3-yl)-2-[[(S)-3-methylpiperidin-1-yl]carbonyl]indoline] as the compound, how does the IC50 read?
The IC50 was 67 nM.

With `CC1CCCN(C(=O)[C@H]2[C@@H](O)c3ccccc3N2c2ccc(=O)n(C)n2)C1` (relative stereo) [Example 159, cis-3-hydroxy-1-(1-methyl-6-oxo-1,6-dihydropyridazin-3-yl)-2-[(3-methylpiperidin-1-yl)carbonyl]-indoline] as the compound, how does the IC50 read?
Its IC50 is 61.5 nM.

Which IC50 does the source give for `C[C@H]1CCCN(C(=O)[C@@H]2Cc3ccccc3N2c2ccc(=O)n(CC3CCC3)n2)C1` [Example 125] here?
Its IC50 is 1.33 nM.

Test system: not given
Experiment: not given
Settings: not given

Which melting point does the source give for `Cn1nc(N2c3ccccc3C[C@H]2C(=O)N2CCCCCC2)ccc1=O` (hydrate or solvate) [Example 118, (S)-1-(1-methyl-6-oxo-1,6-dihydropyridazin-3-yl)-2-[(1-perhydroazepinyl)carbonyl]indoline] here?
Its melting point is 198 to 199 °C.

Which melting point does the source give for `C[C@H]1CCCN(C(=O)[C@@H]2Cc3ccccc3N2c2ccc(=O)n(CC3CCC3)n2)C1` (hydrate or solvate) [Example 125] here?
The melting point was 221 to 223 °C.

With `Cn1nc(N2c3ccccc3C[C@H]2C(=O)N2CCCCCCC2)ccc1=O` (hydrate or solvate) [Example 119, (S)-1-(1-methyl-6-oxo-1,6-dihydropyridazin-3-yl)-2-[(1-perhydroazocinyl)carbonyl]indoline] as the compound, how does the melting point read?
The melting point was 179 to 182 °C.
